# Article PMC7949139, “The molecular basis of OH-PCB estrogen receptor activation” (The Journal of Biological Chemistry, 2021)
# Residue numbers refer to the chain shown, from its start.
# What was measured:
# Format in all cases: biochemical
# SULT1E1 F80A/F75A = biological target: T1, SULT1E1 F80A/F75A (Homo sapiens, UniProt P49888, F75A/F80A); experiment: Initial-rate studies (1-HP sulfonation; OH-PCB1 inhibition), double mutant
# T1 construct: E. coli codon-optimized SULT1E1 coding region inserted into the PreScission Protease cleavage site; His/GST/MBP triple tag (N, cleaved yes); made in house; host or cells: E. coli BL21(DE3)
# T1 sequence (P49888 1-294 F75A/F80A): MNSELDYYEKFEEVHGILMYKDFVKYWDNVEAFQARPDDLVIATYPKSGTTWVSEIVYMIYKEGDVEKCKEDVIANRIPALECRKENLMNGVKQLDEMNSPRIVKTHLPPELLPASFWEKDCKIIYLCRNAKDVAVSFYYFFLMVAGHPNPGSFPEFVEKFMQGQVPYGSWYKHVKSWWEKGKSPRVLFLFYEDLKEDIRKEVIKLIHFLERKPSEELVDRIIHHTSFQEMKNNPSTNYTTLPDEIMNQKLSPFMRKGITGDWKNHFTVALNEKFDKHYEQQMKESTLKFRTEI
# Protocol: (§1) C. Reaction progress was monitored via the fluorescence change associated with 1-HP sulfonation (λex = 325 nm, λem = 370 nm ([51], [52])). Initial rates were measured during conversion to product of ≤5% of the concentration-limiting substrate consumed at the reaction endpoint. Velocities were determined in triplicate. Km and kcat were obtained by (1/v^4)-weighted least-squares fitting of the averaged data in double-reciprocal space (i.e., 1/v versus 1/[S]) ([66], [67]).
# (§2) Inhibition studies were performed as described above except: 1-HP was fixed (2.0 μM, 100 × Km), OH-PCBs were added (0.20–20 × Ki), and SULT1E1 was 0.20 nM (active sites). Ki was determined by least-squares fitting to a noncompetitive inhibition model ([66], [67]).
# WT SULT1E1 = biological target: T2, WT SULT1E1 (Homo sapiens, UniProt P49888); experiment: Initial-rate studies (1-HP sulfonation; OH-PCB inhibition), WT enzyme
# T2 construct: E. coli codon-optimized SULT1E1 coding region inserted into the PreScission Protease cleavage site; His/GST/MBP triple tag (N, cleaved yes); made in house; host or cells: E. coli BL21(DE3)
# T2 sequence (P49888 1-294): T1 sequence (P49888 1-294 F75A/F80A) with A75F, A80F
# Protocol: as §1, §2
# SULT1E1 F80A = biological target: T3, SULT1E1 F80A (Homo sapiens, UniProt P49888, F80A); experiment: Initial-rate studies (1-HP sulfonation; OH-PCB1 inhibition), F80A mutant
# T3 construct: E. coli codon-optimized SULT1E1 coding region inserted into the PreScission Protease cleavage site; His/GST/MBP triple tag (N, cleaved yes); made in house; host or cells: E. coli BL21(DE3)
# T3 sequence (P49888 1-294 F80A): T1 sequence (P49888 1-294 F75A/F80A) with A75F
# Protocol: as §1, §2
# [1] = noncompetitive inhibition model, parentheses = one SD
structure (smiles),measurement,setting,value
"Oc1ccc(-c2c(Cl)cccc2Cl)cc1 [OH-PCB1, 4ʹ-OH-2,6-dichlorobiphenol]",Fold Effect = Ki OH-PCB1/Ki OH-PCB1 WT,SULT1E1 F80A/F75A,113
same,Ki,SULT1E1 F80A/F75A; [1],6800 nM
same,Fold Effect = Ki OH-PCB1/Ki OH-PCB1 WT,WT SULT1E1; WT,1.0
same,Ki,"WT SULT1E1; WT SULT1E1, Table 1, parentheses = one SD, read-out: Ki OH-PCB1",60 nM
same,Fold Effect = Ki OH-PCB1/Ki OH-PCB1 WT,SULT1E1 F80A,12
same,Ki,SULT1E1 F80A; [1],730 nM
